The target in the experiment is STING (Homo sapiens, UniProt Q86WV6, G230A/H232R/R293Q/R71H). Kind of experiment: STING reporter assay in THP1-Dual KO-IFNAR2 cells (2′3′cGAMP stimulation, luciferase reporter). The experiment is classed as cell-based. To be noted: 15 μM 2′3′cGAMP stimulation, 24 h, read-out: Pharmaron, THP1_IFNAR2 STING 24 h Luci Normalized: GeoMean EC50. The essentials:
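THP1-Dual KO-IFNAR2 cells (2×10E6 cells/mL) with compounds at 0.0017-100 μM final, stimulated with 15 μM final 2′3′cGAMP delivered by Lipofectamine 2000; 24 h at 37 °C. Luciferase in supernatant read with QUANTI-Luc Plus; EC50 derived from luminescence.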

Sequence of STING (Q86WV6 whole entry R71H/G230A/H232R/R293Q): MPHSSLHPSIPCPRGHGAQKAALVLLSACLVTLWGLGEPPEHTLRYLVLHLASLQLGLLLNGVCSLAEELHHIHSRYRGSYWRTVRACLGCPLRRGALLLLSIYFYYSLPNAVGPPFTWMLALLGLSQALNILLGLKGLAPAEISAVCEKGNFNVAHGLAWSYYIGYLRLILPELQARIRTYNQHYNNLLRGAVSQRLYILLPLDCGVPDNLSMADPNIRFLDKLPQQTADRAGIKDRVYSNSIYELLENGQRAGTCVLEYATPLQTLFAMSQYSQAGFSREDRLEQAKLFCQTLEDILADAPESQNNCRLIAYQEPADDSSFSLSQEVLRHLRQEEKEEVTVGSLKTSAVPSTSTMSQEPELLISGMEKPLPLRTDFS

Usually EC50 stands for the concentration at which the effect is half-maximal. `COCCC(=O)Nc1c[nH]c2ccc(O[C@H]3C[C@H](c4ccc(C(F)(F)F)cc4)C3)cc12` [Compound 241, 3-methoxy-N-(5-((1r,3r)-3-(4-(trifluoromethyl)phenyl)cyclobutoxy)-1H-indol-3-yl)propanamide]: the EC50 lay within 40 to 200 nM.

Take `O=C(Nc1c[nH]c2ccc(OCCc3ccc(C(F)(F)F)nc3)cc12)C1CCC1` [Compound 142, N-(5-(2-(6-(trifluoromethyl)pyridin-3-yl)ethoxy)-1H-indol-3-yl)cyclobutanecarboxamide]: the EC50 lay in the range of 200 to 1000 nM.

Consider `CO[C@H]1C[C@H](C(=O)Nc2c[nH]c3ccc(O[C@H]4C[C@H](c5ccc(C(F)(F)F)cc5)C4)cc23)C1` [Compound 242, trans-3-methoxy-N-(5-(trans-3-(4-(trifluoromethyl)phenyl)cyclobutoxy)-1H-indol-3-yl)cyclobutane-1-carboxamide], for which the EC50 is 40 to 200 nM.

On to `CC(=O)Nc1c[nH]c2ccc(OC3Cc4ccc(C(F)(F)F)cc4C3)cc12` (stereo not shown) [Compound 473, N-(5-((5-(trifluoromethyl)-2,3-dihydro-1H-inden-2-yl)oxy)-1H-indol-3-yl)acetamide], for which the EC50 fell in the range of 1000 to 5000 nM.

`C[C@]1(C(=O)Nc2c[nH]c3ccc(O[C@H]4C[C@H](c5ccc(C(F)(F)F)cc5)C4)cc23)CC[C@H](O)CC1` (single isomer, unassigned) [Compound 425, trans-4-hydroxy-1-methyl-N-(5-(trans-3-(4-(trifluoromethyl)phenyl)cyclobutoxy)-1H-indol-3-yl)cyclohexane-1-carboxamide]: the EC50 lay within 200 to 1000 nM.

Turning to `CC(=O)Nc1c[nH]c2ccc(OCCc3cnn4c3CCCC4)cc12` [Compound 349, N-(5-(2-(4,5,6,7-tetrahydropyrazolo[1,5-a]pyridin-3-yl)ethoxy)-1H-indol-3-yl)acetamide], the concentration for a half-maximal effect (EC50) is 5000 to 100000 nM.

On to `CC1(C(=O)Nc2c[nH]c3ccc(CCOc4ccc(C(F)(F)F)cc4)cc23)CCC1` [Compound 309, 1-methyl-N-(5-(2-(4-(trifluoromethyl)phenoxy)ethyl)-1H-indol-3-yl)cyclobutane-1-carboxamide], for which the EC50 was 40 to 200 nM.

In the case of `O=C(Nc1c[nH]c2ccc(C(O)CCc3ccc(C(F)(F)F)cc3)cc12)C1CC1` (stereo not shown) [Compound 209, N-(5-(1-hydroxy-3-(4-(trifluoromethyl)phenyl)propyl)-1H-indol-3-yl)cyclopropanecarboxamide], the EC50 was 200 to 1000 nM.

As to `C[C@]1(C(=O)Nc2c[nH]c3ccc(OCCc4ccc(C(F)(F)F)cc4)cc23)C[C@@H](CO)C1` [Compound 531, cis-3-(hydroxymethyl)-1-methyl-N-(5-(4-(trifluoromethyl)phenethoxy)-1H-indol-3-yl)cyclobutane-1-carboxamide], the EC50 lay within 40 to 200 nM.

Turning to `CC1(C(=O)Nc2c[nH]c3ccc(O[C@H]4C[C@@H](c5ccc(C(F)(F)F)cc5)C4)cc23)CCC1` [Compound 360, 1-methyl-N-(5-(cis-3-(4-(trifluoromethyl)phenyl)cyclobutoxy)-1H-indol-3-yl)cyclobutane-1-carboxamide], the EC50 was in the range of 200 to 1000 nM.

Take `N#C[C@H]1C[C@@H]1C(=O)Nc1c[nH]c2ccc(OCC[C@@H]3C[C@@H]4CN(CC(F)(F)F)C[C@@H]4C3)cc12` [Compound 340, (1S,2S)-2-cyano-N-(5-(2-((3aR,5r,6aS)-2-(2,2,2-trifluoroethyl)octahydrocyclopenta[c]pyrrol-5-yl)ethoxy)-1H-indol-3-yl)cyclopropane-1-carboxamide]: the EC50 lay within 1000 to 5000 nM.

Turning to “3,3-dimethyl-N-(5-(2-((3aR,5r,6aS)-2-(2,2,2-trifluoroethyl)octahydrocyclopenta[c]pyrrol-5-yl)ethoxy)-1H-indol-3-yl)butanamide [Compound 339]”, the EC50 is 200 to 1000 nM.

As for `CC1(C(=O)Nc2c[nH]c3ccc(OC4CC(c5ccc(C(F)(F)F)nc5)C4)cc23)CC1` (stereo in doubt) [Compound 580, 1-methyl-N-(5-(cis-3-(6-(trifluoromethyl)pyridin-3-yl)cyclobutoxy)-1H-indol-3-yl)cyclopropane-1-carboxamide], the EC50 is 40 to 200 nM.

With `O=C(Nc1c[nH]c2ccc(CCOc3ccc(C(F)(F)F)cc3)cc12)C1CC(O)C1` (stereo not shown) [Compound 310, 3-hydroxy-N-(5-(2-(4-(trifluoromethyl)phenoxy)ethyl)-1H-indol-3-yl)cyclobutane-1-carboxamide], the EC50 was 40 to 200 nM.

Turning to `O=C(Nc1c[nH]c2ccc(CCOc3ccc(C(F)(F)F)cc3)cc12)C1CCOCC1` [Compound 401, N-(5-(2-(4-(trifluoromethyl)phenoxy)ethyl)-1H-indol-3-yl)tetrahydro-2H-pyran-4-carboxamide], the EC50 was 200 to 1000 nM.

In the case of `CC(=O)Nc1c[nH]c2ccc(CCOc3cccnc3)cc12` [Compound 581, N-(5-(2-(pyridin-3-yloxy)ethyl)-1H-indol-3-yl)acetamide], the half-maximal effective concentration (EC50) is 5000 to 100000 nM.

As for `CC(=O)Nc1c[nH]c2ccc(CCOc3cccc(C(F)(F)F)c3)cc12` [Compound 231, N-(5-(2-(3-(trifluoromethyl)phenoxy)ethyl)-1H-indol-3-yl)acetamide], the EC50 was in the range of 200 to 1000 nM.

Take `COCCOCC(=O)Nc1c[nH]c2ccc(O[C@H]3C[C@@H](c4ccc(C(F)(F)F)cc4)C3)cc12` [Compound 405, 2-(2-methoxyethoxy)-N-(5-(cis-3-(4-(trifluoromethyl)phenyl)cyclobutoxy)-1H-indol-3-yl)acetamide]: the EC50 was 200 to 1000 nM.

As for `O=C(Nc1c[nH]c2ccc(CCCn3cc(C(F)(F)F)cn3)cc12)C1CC1` [Compound 384, N-(5-(3-(4-(trifluoromethyl)-1H-pyrazol-1-yl)propyl)-1H-indol-3-yl)cyclopropanecarboxamide], the EC50 lay within 200 to 1000 nM.

For `CC(=O)Nc1c[nH]c2ccc(COc3ccc(C(F)(F)F)cc3)cc12` [Compound 115, N-(5-((4-(trifluoromethyl)phenoxy)methyl)-1H-indol-3-yl)acetamide], the EC50 fell in the range of 40 to 200 nM.

Take `CC(=O)Nc1c[nH]c2ccc(CCOc3cnc4c(OC(F)(F)F)cccc4c3)cc12` [Compound 477, N-[5-(2-{[8-(trifluoromethoxy)quinolin-3-yl]oxy}ethyl)-1H-indol-3-yl]acetamide]: the EC50 is 1000 to 5000 nM.

Take `CC(=O)Nc1c[nH]c2ccc(OCc3ccc(C(F)(F)F)cc3)cc12` [Compound 247, N-(5-((4-(trifluoromethyl)benzyl)oxy)-1H-indol-3-yl)acetamide]: the EC50 was in the range of 200 to 1000 nM.

With `CC1(C(=O)Nc2c[nH]c3ccc(OCCc4ccc(C(F)(F)F)cc4)cc23)COC1` [Compound 238, 3-methyl-N-(5-(4-(trifluoromethyl)phenethoxy)-1H-indol-3-yl)oxetane-3-carboxamide], the EC50 fell in the range of 40 to 200 nM.

For `O=C(Nc1c[nH]c2ccc(OCC[C@@H]3C[C@@H]4CN(CC(F)(F)F)C[C@@H]4C3)cc12)C1COC1` [Compound 383, N-(5-(2-((3aR,5r,6aS)-2-(2,2,2-trifluoroethyl)octahydrocyclopenta[c]pyrrol-5-yl)ethoxy)-1H-indol-3-yl)oxetane-3-carboxamide], the EC50 fell in the range of 200 to 1000 nM.

Turning to `CC1(C(=O)Nc2c[nH]c3ccc(OC4CC(c5ccc(C(F)(F)F)nc5)C4)cc23)CC1` (stereo not shown) [Compound 376, 1-methyl-N-(5-(3-(6-(trifluoromethyl)pyridin-3-yl)cyclobutoxy)-1H-indol-3-yl)cyclopropane-1-carboxamide], the 50% effective concentration (EC50) is 200 to 1000 nM.

Take `CC1(F)CC(C(=O)Nc2c[nH]c3ccc(CCOc4ccc(C(F)(F)F)cc4)cc23)C1` (stereo not shown) [Compound 395, 3-fluoro-3-methyl-N-(5-(2-(4-(trifluoromethyl)phenoxy)ethyl)-1H-indol-3-yl)cyclobutane-1-carboxamide]: the EC50 lay within 200 to 1000 nM.

As to `N#C[C@H]1C[C@@H]1C(=O)Nc1c[nH]c2ccc(OCCc3ccc(C(F)(F)F)cc3)cc12` [Compound 203, (1S,2S)-2-cyano-N-(5-(4-(trifluoromethyl)phenethoxy)-1H-indol-3-yl)cyclopropane-1-carboxamide], the EC50 was in the range of 200 to 1000 nM.

Turning to `C[C@]1(C(=O)Nc2c[nH]c3ccc(OCC[C@@H]4C[C@@H]5CN(CC(F)(F)F)C[C@@H]5C4)cc23)C[C@H](CO)C1` [Compound 512, (1r,3R)-3-(hydroxymethyl)-1-methyl-N-(5-(2-((3aR,5r,6aS)-2-(2,2,2-trifluoroethyl)octahydrocyclopenta[c]pyrrol-5-yl)ethoxy)-1H-indol-3-yl)cyclobutane-1-carboxamide], the EC50 is 200 to 1000 nM.

For the compound `CC(=O)Nc1c[nH]c2ccc(CCOC(C)(C)C3CCN(CC(F)(F)F)C3)cc12` (stereo not shown) [Compound 499, N-(5-(2-((2-(1-(2,2,2-trifluoroethyl)pyrrolidin-3-yl)propan-2-yl)oxy)ethyl)-1H-indol-3-yl)acetamide], the EC50 was in the range of 5000 to 100000 nM.

With `[2H][13C]([2H])([2H])C(=O)Nc1c[nH]c2ccc(CCOc3ccc(C(F)(F)F)cc3)cc12` [Compound 545, N-(5-(2-(4-(trifluoromethyl)phenoxy)ethyl)-1H-indol-3-yl)acetamide-2-13C-2,2,2-d3], the EC50 was 40 to 200 nM.

As for `CCC(=O)Nc1c[nH]c2ccc(OCCc3ccc(C(F)(F)F)cc3)cc12` [Compound 146, N-(5-(4-(trifluoromethyl)phenethoxy)-1H-indol-3-yl)propionamide], the EC50 lay within 40 to 200 nM.

Consider `CC(=O)Nc1c[nH]c2ccc(OCCC3CCCN(CC(F)(F)F)C3)cc12` (single isomer, unassigned) [Compound 279], for which the EC50 was 1000 to 5000 nM.

In the case of `CC1(C(=O)Nc2c[nH]c3ccc(OCCc4ccc(C(F)(F)F)cc4)cc23)CC1` [Compound 251, 1-methyl-N-(5-(4-(trifluoromethyl)phenethoxy)-1H-indol-3-yl)cyclopropane-1-carboxamide], the EC50 was 40 to 200 nM.

For “1-fluoro-N-(5-(2-((3aR,5r,6aS)-2-(2,2,2-trifluoroethyl)octahydrocyclopenta[c]pyrrol-5-yl)ethoxy)-1H-indol-3-yl)cyclopropane-1-carboxamide [Compound 371]”, the EC50 is 200 to 1000 nM.

Values taken from US12503436B2, “Compounds and compositions for treating conditions associated with STING activity” (NOVARTIS PHARMA AG, priority 2021, dated 2025).
